Test results from patent US10968176B2, “Pyrrolidone derivatives, oligomers and polymers” (NanoSynthons LLC, priority 2014, dated 2021).
Like-named read-outs stand apart in the source and are kept apart here.

Assay: Fluorescence excitation/emission maxima and relative response per gram (luminescence spectrometer)
Type: physicochemical
Procedure: The appropriate alkyl or aryl amine (0.05 moles) was weighed into a 100 mL round-bottom flask equipped with a magnetic stirrer and containing 15 mL of dry methanol. While stirring, the appropriate dialkyl/diaryl itaconate (0.05 moles/primary amine moiety) dissolved in 15 mL of dry methanol was added dropwise over a period of 10 min. In some cases, a moderate exotherm was noted. The reaction was allowed to stir at RT for 1 h followed by refluxing for 8-10 h. The final product was obtained by removal of the solvent with a Buchi roto-evaporator to give a solid, liquid or syrup with yields ranging from 75-98%. See Table 2 in the Examples and FIGS. 3A-3B for their structures. These final products were characterized by FTIR, ^1H—, ^13C-NMR. Their UV-vis/fluorescence properties were evaluated with a fluorospectrometer (Spectramax from Molecular Devices) yielding data as described in Table 2 in the Examples.
Itaconic acid (Sigma-Aldrich) (0.05 moles/primary amine moiety) was weighed into a 100 mL round-bottom flask equipped with a magnetic stirrer. While stirring, the appropriate alkyl or aryl amine (0.05 moles) was added dropwise over a period of 10 min. […] The flask and reaction mixture was surmounted by a reflux condenser and immersed in an oil bath and heated at 125° C. for 2-5 h. The formation of water condensate from the reaction can be noticed in the condenser. A 25 mL portion of dry methanol is then added and the reaction mixture is refluxed for 1 h. Removal of solvent on a Buchi roto-evaporator produces the desired pyrrolidone product as an oil, syrup or solid in yields ranging from 59-95%. These final products were characterized by using a Thomas-Hoover capillary melting point apparatus, FTIR and ^1H—, ^13C-NMR. Their UV-vis/fluorescence properties were evaluated with a fluorescence spectrometer (Spectramax from Molecular Devices) yielding data as described in Table 2.
Fluorescence data was acquired with a Perkin-Elmer LS50B Luminescence spectrometer. Constant slit widths (Both excitation and emission—3 nm) were used and the concentrations were adjusted to give on scale emission responses. Emission responses were divided by concentration to give response per gram and multiplied by a scaling factor chosen to set the relative response of the standard, fluorescein-Na, to 1,000,000.

[1] = peak 1, fluorescein-Na = 1,000,000
[2] = peak 2, fluorescein-Na = 1,000,000
[3] = scaled so that fluorescein-Na = 1,000,000

Row | Compound | Emission Max (peak 1) [nm] | Excitation Max (peak 1) [nm] | Relative Response/g [1] | Emission Max (peak 2) [nm] | Excitation Max (peak 2) [nm] | Relative Response/g [2] | Emission Max [nm] | Excitation Max [nm] | Relative Response/g [3]
1 | COC(=O)C1CC(=O)N(CCNC(=O)C2CC(=O)N(CCNC(=O)C3CC(=O)N(CCNC(=O)C4CC(=O)N(CCSSCCN5CC(C(=O)NCCN6CC(C(=O)NCCN7CC(C(=O)NCCN8CC(C(=O)OC)CC8=O)CC7=O)CC6=O)CC5=O)C4)C3)C2)C1 (stereo not drawn) [Compound 37] | 302 | 268 | 7.0 | 565 | 260 | 6.5 | – | – | –
2 | COC(=O)C1CC(=O)N(CCSSCCN2CC(C(=O)OC)CC2=O)C1 (stereo not drawn) [Compound 31] | – | – | – | – | – | – | 350 | 300 | 18.7
3 | NCCNC(=O)C1CC(=O)N(CCNC(=O)C2CC(=O)N(CCNC(=O)C3CC(=O)N(CCN4CC(C(=O)NCCN5CC(C(=O)NCCN6CC(C(=O)NCCN)CC6=O)CC5=O)CC4=O)C3)C2)C1 (stereo not drawn) [Compound 43] | – | – | – | – | – | – | 440 | 355 | 22.8
4 | COC(=O)C1CC(=O)N(CCNC(=O)C2CC(=O)N(CCNC(=O)C3CC(=O)N(CCN4CC(C(=O)NCCN5CC(C(=O)NCCN6CC(C(=O)OC)CC6=O)CC5=O)CC4=O)C3)C2)C1 (stereo not drawn) [Compound 42] | – | – | – | – | – | – | 405 | 335 | 30.7
5 | c1ccc(C2=NCCN2)cc1 [2-Phenyl-2-imidazoline, reference compound] | – | – | – | – | – | – | 400 | 340 | 50.1
6 | NCCNC(=O)C1CC(=O)N(CCN2CC(C(=O)NCCN)CC2=O)C1 (stereo not drawn) [Compound 39] | 415 | 355 | 37.8 | 420 | 245 | 11.1 | – | – | –
7 | O=C1CCC(C(=O)O)N1 (stereo not drawn) [2-Pyrrolidone-5-carboxylic acid, reference compound] | – | – | – | – | – | – | 385 | 245 | 11.8
8 | COC(=O)C1CC(=O)N(CCNC(=O)C2CC(=O)N(CCNC(=O)C3CC(=O)N(CCSSCCN4CC(C(=O)NCCN5CC(C(=O)NCCN6CC(C(=O)OC)CC6=O)CC5=O)CC4=O)C3)C2)C1 (stereo not drawn) [Compound 35] | – | – | – | – | – | – | 301 | 277 | 5.8
9 | O=C([O-])c1ccccc1-c1c2ccc(=O)cc-2oc2cc([O-])ccc12.[Na+].[Na+] [Fluorescein-Na, reference compound] | – | – | – | – | – | – | 510 | 470 | 1,000,000.0
10 | COC(=O)C1CC(=O)N(CCN2CC(C(=O)OC)CC2=O)C1 (stereo not drawn) [Compound 38] | – | – | – | – | – | – | 410 | 335 | 2.7
11 | COC(=O)C1CC(=O)N(CCNC(=O)C2CC(=O)N(CCN3CC(C(=O)NCCN4CC(C(=O)OC)CC4=O)CC3=O)C2)C1 (stereo not drawn) [Compound 40] | – | – | – | – | – | – | 390 | 305 | 66.4
12 | COC(=O)C1CC(=O)N(CCNC(=O)C2CC(=O)N(CCSSCCN3CC(C(=O)NCCN4CC(C(=O)OC)CC4=O)CC3=O)C2)C1 (stereo not drawn) [Compound 33] | – | – | – | – | – | – | 380 | 320 | 391.7
13 | COC(=O)C1CC(=O)N(CCNC(=O)C2CC(=O)N(CCNC(=O)C3CC(=O)N(CCNC(=O)C4CC(=O)N(CCN5CC(C(=O)NCCN6CC(C(=O)NCCN7CC(C(=O)NCCN8CC(C(=O)OC)CC8=O)CC7=O)CC6=O)CC5=O)C4)C3)C2)C1 (stereo not drawn) [Compound 44] | – | – | – | – | – | – | 450 | 350 | 14.5
14 | NCCNC(=O)C1CC(=O)N(CCNC(=O)C2CC(=O)N(CCN3CC(C(=O)NCCN4CC(C(=O)NCCN)CC4=O)CC3=O)C2)C1 (stereo not drawn) [Compound 41] | 390 | 340 | 62.7 | 455 | 285 | 18.7 | – | – | –
